# Measured values: patent US20240166690A1, “MULTI-TARGET CY[…] FOR OPIOID/NEUROPEPTIDE FF RECEPTORS, AND PREPARATION THEREFOR AND APPLICATION THEREOF” (SHANGHAI TIANCI LIFE SCIENCE DEVELOPMENT CO., LTD., priority 2021, published 2024)
# Bridge positions count the residues as written; N and C are the ends. Square brackets hold non-standard residues; d marks the D form. Ends that are not written are not given here. Peptide text beside a SMILES is read from it. NMeF = CN[C@@H](Cc1ccccc1)C(=O)O; dOrn = NCCC[C@@H](N)C(=O)O; dDab = NCC[C@@H](N)C(=O)O
# How the values were obtained:
# Mu-opioid receptor = target: T1, Mu-opioid receptor (Homo sapiens, UniProt P35372); assay: cAMP functional experiment, Mu-opioid receptor (forskolin-induced cAMP accumulation); type: cell-based
# T1 construct: expressed in transfected cells; host or cells: HEK293
# Procedure: (§1) The agonistic activity of the cyclopeptide molecule of the present invention against Mu-opioid receptor, Delta-opioid receptor, Kappa-opioid receptor, NPFF1 receptor and NPFF2 receptor was evaluated by detecting the regulation of the cyclopeptide molecule of the present invention on the intracellular accumulation of cyclic adenosine monophosphate (cAMP) induced by Forskolin in HEK293 cells stably expressing these five receptors. The experimental method was: the cells were seeded in 24 well plates with 120000 cells per well, and were cultured for more than 20 hours. At the beginning of the experiment, the culture medium in the culture dish was suck out, and then 500 μL of preheated serum-free medium containing 1 mM of IBMX was added, the mixture was incubated at 37° C. for 10 minutes. Then each 10 μL of the drug to be tested and 10 μM of forskolin (final concentration) were added to each well. The mixture was incubated at 37° C. for 30 minutes. After incubation, all the liquid was suck out from the culture dish, 500 μL of 0.2 N hydrochloric acid was added to each well, the mixture was incubated at room temperature for 30 minutes to promote cell lysis. After lysis was complete, NaOH was added to neutralize the hydrochloric acid solution used for lysis. Then all the liquid was suck out from the culture dish into centrifuge tubes, the liquid was centrifuged at 12000 rpm for 2 minutes. 50 μL was taken to a clean centrifuge tube, 100 μL of 60 μg/μL PKA was added, and 100 μL of TE cAMP buffer was added to the blank control group (B). Another 50 μL of 0.5 μ Ci[^3H]cAMP was added to each of the above centrifuge tubes, the mixture was quickly mixed and incubated at 4° C. for more than 2 hours. After incubation, another 100 μL of activated carbon suspension was added to each tube, the mixture was vortex agitated evenly, placed in an ice bath for 1 minute, centrifuged at 5000 rpm for 4 minutes. 200 μL of supernatant after centrifugation in each tube was suck out to a 24 well plate, with an additional 700 μL of scintillator liquid added per well, then the 24 well plate was sealed with adhesive film, placed for 3 hours, then placed on the scintillation instrument for measurement.
# (§2) The inhibitory effect of cAMP was represented by the percentage (% control) of drug inhibition of intracellular cAMP accumulation induced by Forskolin, wherein % control=(cAMP content when treated with Forskolin−cAMP content when Forskolin co-treated with the test drug)/(cAMP content when treated with Forskolin−cAMP content when treated with solvent). The related % control data was represented by mean±S.E.M. The dose-effect relationship of the drug was statistically analyzed using a nonlinear regression model, and the IC50 values of the multi-target cyclopeptide molecule on inhibition of Forskolin induced intracellular cAMP accumulation were calculated using the statistical software GraphPad Prism version 5.0.
# Kappa-opioid receptor = target: T2, Kappa-opioid receptor (Homo sapiens, UniProt P41145); assay: cAMP functional experiment, Kappa-opioid receptor (forskolin-induced cAMP accumulation); type: cell-based
# T2 construct: expressed in transfected cells; host or cells: HEK293
# Procedure: as §1, §2
# Delta-opioid receptor = target: T3, Delta-opioid receptor (Homo sapiens, UniProt P41143); assay: cAMP functional experiment, Delta-opioid receptor (forskolin-induced cAMP accumulation); type: cell-based
# T3 construct: expressed in transfected cells; host or cells: HEK293
# Procedure: as §1, §2
# NPFF1 receptor = target: T4, NPFF1 receptor (Homo sapiens, UniProt Q9GZQ6); assay: cAMP functional experiment, NPFF1 receptor (forskolin-induced cAMP accumulation); type: cell-based
# T4 construct: expressed in transfected cells; host or cells: HEK293
# Procedure: as §1, §2
# NPFF2 receptor = target: T5, NPFF2 receptor (Homo sapiens, UniProt Q9Y5X5); assay: cAMP functional experiment, NPFF2 receptor (forskolin-induced cAMP accumulation); type: cell-based
# T5 construct: expressed in transfected cells; host or cells: HEK293
# Procedure: as §1, §2
# Kunming male mice [1] = assay: Photothermal tail flick experiment, subcutaneous injection; type: in vivo; conditions: for ED50 value (95% confidence interval), analgesic activity: photothermal tail flick
# Procedure: (§3) Two administration methods were used: peripheral subcutaneous administration and oral administration. Subsequently, the analgesic activity of the drug was studied using an acute pain model of photothermal tail flick in mice.
# Subcutaneous administration on the back was chosen for subcutaneous administration (s.c.). A sterile 1 mL syringe was used and the drug with the volume of 0.1 mL/10 g was injected for administration. The back skin was grasped with the right hand, the needle was tilted in, and the drug was injected subcutaneously into the mouse's back. After the needle was inserted, shook it left and right, and observe to confirm that the needle had indeed entered the subcutaneous area to prevent the needle from puncturing the skin and leaking the drug.
# (§4) The photothermal tail flick experiment is based on the experimental method summarized by D'Amour and Smith to optimize the experimental parameters. The experiment selected Kunming male mice with body weigh 21±2 g, and ambient temperature controlled at 22±2° C. The experimental mice were allowed to drink water freely and were moved from the breeding room to the experimental area for adaptation for 30 minutes before starting the experiment. Then the mice were grab with the right hand and the tail hang freely. Then the mice's tail were placed on a radiation light source, 2-3 mm away from the mice tail. The intensity of radiation heat was adjusted to the tail flick time of mice being 3-5 s, which is the basic pain threshold of photothermal tail flick. The irradiation time of the mice tail should not exceed 10 s to prevent scalding of the mice tail, which was the maximum latency for photothermal tail flick. After administration, time points of 10, 20, 30, 45, 60, 90, 120, 180, 240, 300, 360, and 420 minutes were selected to measure the tail flick latency of mice after administration.
# (§5) The analgesic effect of drugs was generally evaluated using the maximum analgesic effect MPE (%), MPE (%)=100×[(pain threshold after administration−basic pain threshold)/(10 seconds−basic pain threshold)]. 50% effective dose (ED50) refers to the corresponding drug dose that causes a 50% effect. ED50 and 95% confidence interval were calculated using MPE (%) and the drug concentration that achieves the maximum analgesic effect MPE (%) by the statistical software GraphPad Prism 5.0. The difference in analgesic effects was statistically analyzed using one-way ANOVA (Dunnett test), *P<0.05, **P<0.01, and ***P<0.001 indicated significance of the difference between the group with only drug injected and the saline group.
# Kunming male mice [2] = assay: Photothermal tail flick experiment, oral administration; type: in vivo; conditions: tail flick; for Maximum analgesic time: oral administration at the maximum analgesic dose
# Procedure: as §3
# 1 mL sterile syringe was used for oral administration (p.o.), the pinhead was replaced with a mouse gastric lavage needle, and […] of the drug was orally administered. The skin on the neck and back of the mouse was grasped with the left hand with the abdomen facing upwards. Noted that the mouse's entire body was fixed to vertical, which was beneficial for oral gavage. A gastric lavage needle (No. 12 needle and 1 mL syringe) was held in the right hand and was inserted to the esophagus along the upper jaw which is pressed the tongue tightly from the corner of the mouse's mouth. Gastric lavage fluid can be injected when the needle inserted 2.5 cm. The inserting length of the needle should be determined through practice in advance, as there is a sense of falling into a hole after the needle is inserted. If the injection position was appropriate, it should be very smooth. […] This can cause immediate death of the mouse after gavage.
# as §4, §5
# T3 sequence (P41143 whole entry): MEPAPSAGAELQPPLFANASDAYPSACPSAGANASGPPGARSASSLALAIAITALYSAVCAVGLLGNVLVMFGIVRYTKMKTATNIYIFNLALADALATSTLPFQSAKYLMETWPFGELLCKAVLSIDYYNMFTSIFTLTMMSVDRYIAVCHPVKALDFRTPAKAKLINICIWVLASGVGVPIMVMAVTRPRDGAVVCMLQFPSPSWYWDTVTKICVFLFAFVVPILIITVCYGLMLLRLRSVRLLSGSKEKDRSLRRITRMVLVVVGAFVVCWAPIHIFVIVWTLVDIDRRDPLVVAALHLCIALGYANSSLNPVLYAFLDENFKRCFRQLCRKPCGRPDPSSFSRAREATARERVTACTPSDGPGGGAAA
# T1 sequence (P35372 whole entry): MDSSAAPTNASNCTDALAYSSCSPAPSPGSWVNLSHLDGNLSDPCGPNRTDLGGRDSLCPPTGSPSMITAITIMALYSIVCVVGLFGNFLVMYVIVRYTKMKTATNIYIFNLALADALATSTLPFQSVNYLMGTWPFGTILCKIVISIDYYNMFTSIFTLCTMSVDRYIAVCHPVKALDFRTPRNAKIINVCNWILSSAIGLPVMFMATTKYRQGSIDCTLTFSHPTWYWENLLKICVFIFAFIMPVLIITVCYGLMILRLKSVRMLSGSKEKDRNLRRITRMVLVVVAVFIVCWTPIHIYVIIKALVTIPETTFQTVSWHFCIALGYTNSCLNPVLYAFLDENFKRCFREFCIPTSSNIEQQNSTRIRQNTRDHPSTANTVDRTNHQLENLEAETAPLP
# T5 sequence (Q9Y5X5 whole entry): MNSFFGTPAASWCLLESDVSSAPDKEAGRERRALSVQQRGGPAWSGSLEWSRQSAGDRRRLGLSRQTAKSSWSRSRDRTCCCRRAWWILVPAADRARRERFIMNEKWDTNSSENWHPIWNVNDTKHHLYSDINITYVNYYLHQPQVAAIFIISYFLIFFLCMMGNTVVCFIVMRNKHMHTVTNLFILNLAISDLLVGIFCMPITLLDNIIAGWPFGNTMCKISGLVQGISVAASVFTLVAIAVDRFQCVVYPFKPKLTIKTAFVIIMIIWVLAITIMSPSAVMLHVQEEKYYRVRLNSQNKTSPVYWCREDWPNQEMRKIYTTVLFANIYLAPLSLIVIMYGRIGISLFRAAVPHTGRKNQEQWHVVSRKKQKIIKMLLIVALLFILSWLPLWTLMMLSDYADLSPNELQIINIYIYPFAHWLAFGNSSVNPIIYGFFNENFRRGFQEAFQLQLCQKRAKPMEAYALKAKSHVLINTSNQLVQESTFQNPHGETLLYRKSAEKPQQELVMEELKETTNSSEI
# T2 sequence (P41145 whole entry): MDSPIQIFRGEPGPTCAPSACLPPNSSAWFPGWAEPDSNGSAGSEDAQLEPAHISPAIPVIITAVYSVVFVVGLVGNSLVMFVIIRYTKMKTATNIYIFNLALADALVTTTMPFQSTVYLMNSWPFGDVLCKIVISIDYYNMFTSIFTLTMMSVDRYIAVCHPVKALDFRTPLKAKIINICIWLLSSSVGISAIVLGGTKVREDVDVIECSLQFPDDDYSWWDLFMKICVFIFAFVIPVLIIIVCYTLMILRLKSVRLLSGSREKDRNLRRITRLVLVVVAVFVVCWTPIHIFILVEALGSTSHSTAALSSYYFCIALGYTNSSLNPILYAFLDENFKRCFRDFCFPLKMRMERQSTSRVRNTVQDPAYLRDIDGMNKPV
# T4 sequence (Q9GZQ6 whole entry): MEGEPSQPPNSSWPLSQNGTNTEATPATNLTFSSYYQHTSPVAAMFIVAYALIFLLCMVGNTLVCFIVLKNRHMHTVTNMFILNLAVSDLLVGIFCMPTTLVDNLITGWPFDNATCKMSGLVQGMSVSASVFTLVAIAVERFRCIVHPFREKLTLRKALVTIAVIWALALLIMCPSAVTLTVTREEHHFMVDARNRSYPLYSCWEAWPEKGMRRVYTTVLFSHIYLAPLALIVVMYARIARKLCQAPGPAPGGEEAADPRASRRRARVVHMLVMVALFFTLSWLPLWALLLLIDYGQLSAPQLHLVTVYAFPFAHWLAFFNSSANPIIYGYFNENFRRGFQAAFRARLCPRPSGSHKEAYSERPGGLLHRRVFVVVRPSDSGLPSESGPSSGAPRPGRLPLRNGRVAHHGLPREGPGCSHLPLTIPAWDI
Compound,IC50 (Mu-opioid receptor) [nM],IC50 (Kappa-opioid receptor) [nM],IC50 (Delta-opioid receptor) [nM],IC50 (NPFF1 receptor) [nM],IC50 (NPFF2 receptor) [nM],"ED50 value (95% confidence interval), analgesic activity (Kunming male mice [1])",Maximum analgesic time (Kunming male mice [2]) [min],analgesic duration (Kunming male mice [2]; oral administration) [min],effective analgesic actuation duration (Kunming male mice [1]; tail flick) [min],oral analgesic activity (Kunming male mice [2]; oral administration)
"CN1C(=O)CNC(=O)[C@H](NC(=O)[C@@H](N)Cc2ccc(O)cc2)CCCCNC(=O)CC[C@@H](C(=O)N2CCC[C@H]2C(=O)N[C@@H](CCC(N)=O)C(=O)N[C@@H](CCCNC(=N)N)C(=O)N[C@@H](Cc2ccccc2)C(N)=O)NC(=O)[C@@H]1Cc1ccccc1 [Compound 2, Tyr-c^[2,5][D-Lys-Gly-NMe-Phe-Glu]-Pro-Gln-Arg-Phe-NH2] (H-Y[dK]G[NMeF]EPQRF-NH2; lactam 2-5)",48.8,29.5,36.4,189,83.1,17.9 (15.3 to 20.9) μg/kg,30,240,–,–
"CN1C(=O)CNC(=O)[C@@H](NC(=O)[C@@H](N)Cc2ccc(O)cc2)CCCCNC(=O)C[C@@H](C(=O)N2CCC[C@H]2C(=O)N[C@@H](CCC(N)=O)C(=O)N[C@@H](CCCNC(=N)N)C(=O)N[C@@H](Cc2ccccc2)C(N)=O)NC(=O)[C@@H]1Cc1ccccc1 [Compound 3, Tyr-c^[2,5][Lys-Gly-NMe-Phe-Asp]-Pro-Gln-Arg-Phe-NH2] (H-YKG[NMeF]DPQRF-NH2; lactam 2-5)",70.7,320,28.2,28.9,112,25.4 (22.1 to 29.2) μg/kg,20,240,–,–
"CN1C(=O)CNC(=O)[C@@H](NC(=O)[C@@H](N)Cc2ccc(O)cc2)CCCCNC(=O)C[C@H](C(=O)N2CCC[C@H]2C(=O)N[C@@H](CCC(N)=O)C(=O)N[C@@H](CCCNC(=N)N)C(=O)N[C@@H](Cc2ccccc2)C(N)=O)NC(=O)[C@@H]1Cc1ccccc1 [Compound 4, Tyr-c^[2,5][Lys-Gly-NMe-Phe-D-Asp]-Pro-Gln-Arg-Phe-NH2] (H-YKG[NMeF][dD]PQRF-NH2; lactam 2-5)",166,–,923,104,81.5,30.3 (19.4 to 47.1) μg/kg,20,240,–,–
"CN1C(=O)CNC(=O)[C@H](NC(=O)[C@@H](N)Cc2ccc(O)cc2)CCCCNC(=O)C[C@H](C(=O)N2CCC[C@H]2C(=O)N[C@@H](CCC(N)=O)C(=O)N[C@@H](CCCNC(=N)N)C(=O)N[C@@H](Cc2ccccc2)C(N)=O)NC(=O)[C@@H]1Cc1ccccc1 [Compound 5, Tyr-c^[2,5][D-Lys-Gly-NMe-Phe-D-Asp]-Pro-Gln-Arg-Phe-NH2] (H-Y[dK]G[NMeF][dD]PQRF-NH2; lactam 2-5)",586,–,345,528,190,23.2 (19.1 to 28.2) μg/kg,20,240,–,–
"CN1C(=O)CNC(=O)[C@H](NC(=O)[C@@H](N)Cc2ccc(O)cc2)CC(=O)NCCCC[C@@H](C(=O)N2CCC[C@H]2C(=O)N[C@@H](CCC(N)=O)C(=O)N[C@@H](CCCNC(=N)N)C(=O)N[C@@H](Cc2ccccc2)C(N)=O)NC(=O)[C@@H]1Cc1ccccc1 [Compound 6, Tyr-c^[2,5][D-Asp-Gly-NMe-Phe-Lys]-Pro-Gln-Arg-Phe-NH2] (H-Y[dD]G[NMeF]KPQRF-NH2; lactam 2-5)",66.3,58,74.2,222,303,15.8 (14.6 to 17.1) μg/kg,30,240,–,–
"CN1C(=O)CNC(=O)[C@H](NC(=O)[C@@H](N)Cc2ccc(O)cc2)CCCNC(=O)C[C@@H](C(=O)N2CCC[C@H]2C(=O)N[C@@H](CCC(N)=O)C(=O)N[C@@H](CCCNC(=N)N)C(=O)N[C@@H](Cc2ccccc2)C(N)=O)NC(=O)[C@@H]1Cc1ccccc1 [Compound 8, Tyr-c^[2,5][D-Orn-Gly-NMe-Phe-Asp]-Pro-Gln-Arg-Phe-NH2] (H-Y[dOrn]G[NMeF]DPQRF-NH2; lactam 2-5)",168,139,659,439,133,15.0 (13.8 to 16.4) μg/kg,30,240,–,–
"CN1C(=O)CNC(=O)[C@H](NC(=O)[C@@H](N)Cc2ccc(O)cc2)CCNC(=O)C[C@@H](C(=O)N2CCC[C@H]2C(=O)N[C@@H](CCC(N)=O)C(=O)N[C@@H](CCCNC(=N)N)C(=O)N[C@@H](Cc2ccccc2)C(N)=O)NC(=O)[C@@H]1Cc1ccccc1 [Compound 9, Tyr-c^[2,5][D-Dab-Gly-NMe-Phe-Asp]-Pro-Gln-Arg-Phe-NH2] (H-Y[dDab]G[NMeF]DPQRF-NH2; lactam 2-5)",37.9,71.2,95.1,180,265,16.0 (14.4 to 17.6) μg/kg,30,240,–,–
"CN1C(=O)CNC(=O)[C@H](NC(=O)[C@@H](N)Cc2ccc(O)cc2)CCCCNC(=O)C[C@@H](C(=O)NCC(=O)N[C@@H](CCC(N)=O)C(=O)N[C@@H](CCCNC(=N)N)C(=O)N[C@@H](Cc2ccccc2)C(N)=O)NC(=O)[C@@H]1Cc1ccccc1 [Compound 12, Tyr-c^[2,5][D-Lys-Gly-NMe-Phe-Asp]-Gly-Gln-Arg-Phe-NH2] (H-Y[dK]G[NMeF]DGQRF-NH2; lactam 2-5)",82.6,97.4,45.2,58.6,93,–,20,240,–,–
"Tyr-D-Ala-Gly-NMe-Phe-Gly-Pro-Gln-Arg-Phe-NH2 (Y[dA]G[NMeF]GPQRF-NH2) [DN-9, multi-target parent peptide for opioid receptor/neuropeptide FF receptors, chemical template, reference compound]",–,–,–,–,–,228 µg/kg,20,90,90,only produces strong analgesic activity at a high-dose of 40 mg/kg
